According to ChEMBL document CHEMBL3507680, “University of Dundee, Gates Library screen for HepG2 cell viability”:

Experiment: Human HepG2 cell viability assay in 384 well format
Assay type: toxicity, cell-based
Design: dose 125 nL, time 70.5 hour; concentration not given beside the values
Details: HepG2 cells, read-out: Inhibition

| Compound | cytotoxicity at 70.5 h [%] |
| --- | --- |
| CCn1ncc(C(=O)NCc2ccc(C)c(OC)c2)c1C(F)(F)F | -21.3 |
| O=C(Cn1cc(-n2cccc2)cn1)NCC(F)(F)F | -12.8 |
| CN(Cc1nnc(-c2cccs2)o1)C(C(N)=O)c1cccc(F)c1 (configuration not stated) | -22 |
| Cc1ccc(NC(=O)NCCc2cnn(C)c2)c(N(C)C)n1 | 0.893 |
| Cc1ccc(NC(=O)NCCc2ccncc2C)c(N(C)C)n1 | -16.2 |
| Cc1cc(F)c(S(=O)(=O)Nc2ccn(CCC#N)n2)cc1F | -16.3 |
| O=C(Cc1cccc(F)c1)NC1CCCc2cn[nH]c21 (configuration not stated) | -11.9 |
| O=S1(=O)CCN2C(=N1)Oc1ccc(S(=O)(=O)N3CCCC3)cc12 | -5.8 |
| Cc1cccc(N2CCN(C(=O)CCCC(=O)N(C)C)C(C)C2)n1 (configuration not stated) | -18.7 |
| CNC(=O)CN(C)C(=O)c1cc2ccccc2cc1OC | -17.8 |
| N#Cc1ccccc1CN(CCO)Cc1ccsc1 | -14.1 |
| CC(C)OCCCNC(=O)NCc1cccc(-n2ccnc2)c1 | -6.74 |
| COCCN(Cc1cccc(O)c1)CC1CC1 | 29.9 |
| CN(Cc1nnc(C2CC2)n1C)S(=O)(=O)c1ccccc1F | 4.23 |
| COC(=O)CC(C)(C)CC(=O)N1CCC(C(F)(F)F)CC1 | 1.71 |
| CC(Cn1cccn1)NC(=O)NCCN1CCCCCC1=O (configuration not stated) | 2.55 |
| CNC(=O)C1CN(Cc2ccc(C#N)cc2F)c2ccccc2O1 (configuration not stated) | 1 |
| CC(C)(C)OC(=O)N1CSC[C@@H]1C(=O)NCc1cccc(C#N)c1 | -0.236 |
| CC(C)(C)OC(=O)N1CSC[C@@H]1C(=O)NCc1ccc(C#N)cc1 | -3.01 |
| CC(C)(C)OC(=O)N1CSC[C@@H]1C(=O)NCc1ccsc1 | -1.79 |
| CC(C)OCCC(=O)Nc1ncn(CC(=O)N2CCCCCC2)n1 | -1.46 |
| O=C(CCc1ccco1)Nc1ncn(CC(=O)N2CCCCCC2)n1 | -2.03 |

| Compound | cytotoxicity at 70.5 h [%] |
| --- | --- |
| CC(C)(C)CNC(=O)CNC(=O)C1CC1 | 0.566 |
| Cc1cc2c(cc1C)C(NC1CC1)CCCO2 (configuration not stated) | 0.0987 |
| NC(=O)N1CCCN(CCc2nc(-c3cccc(Cl)c3)no2)CC1 | 4.65 |
| Cc1nsc(N2CCCN(c3ccc(C#N)cn3)CC2)n1 | -0.603 |
| C[S+]([O-])CCCNCc1cc(F)ccc1Br (configuration not stated) | 0.821 |
| CCC(C)(NCc1nnc(C(C)(C)C)o1)c1nccs1 (configuration not stated) | -0.157 |
| COCCN1CC[C@]2(CN(C(=O)c3ccc[nH]3)C[C@H]2C)C1=O | -7.41 |
| CCOCC1CN(CC2CCC2)Cc2nnn(CC3CC3)c21 (configuration not stated) | -0.482 |
| O=C(NC1CC1)c1cc2c(s1)CCN2C(=O)C1CC1 | -7.29 |
| Cn1cc(-c2ncnc3c2CCN(C(=O)c2cscn2)CC3)cn1 | 22.4 |
| CCS(=O)(=O)N1Cc2nccn2CC(Cn2cccn2)C1 (configuration not stated) | 1.18 |
| O=C(Nc1ccccc1)N1CCc2nc(C(=O)N3CCCC3)sc2CC1 | -2.49 |
| NC(=O)c1nc2c(s1)CCN(C(=O)Nc1cccc(Cl)c1)CC2 | 7.06 |
| OCc1nnc2n1CCN(c1cnccn1)C2 | -1.17 |
| CN1Cc2ccccc2CC2(CCN(Cc3nccn3C)CC2)C1=O | -3.31 |
| CCC1=NC2(CCC(C(=O)Nc3ccc(C)nc3)CC2)C(=O)N1C (configuration not stated) | -2.35 |
| CCC1=NC2(CCC(C(=O)Nc3ccc(F)cc3)CC2)C(=O)N1C (configuration not stated) | -5.04 |
| CC(C)n1nc(CN2CCCC2=O)c2c1CN(C(=O)c1ccno1)C2 | -1.71 |
| Cc1ccc(CN2CCO[C@@H]3[C@@H](OCc4cccnc4)CC[C@@H]32)o1 | -4.63 |
| CC(C)O[C@@H]1CC[C@H]2[C@H]1OCCN2C(=O)c1nn(C)c2ccccc12 | 1.07 |
| CCS(=O)(=O)N1C[C@H]2CN(CC3CC3)C(=O)[C@H]2C1 | -0.251 |
| O=C1[C@H]2CN(S(=O)(=O)C3CC3)C[C@H]2CN1CC1CC1 | 0.281 |

| Compound | cytotoxicity at 70.5 h [%] |
| --- | --- |
| CC(C)NC(=O)C1CN(C(=O)c2ccco2)CC12CCOCC2 (configuration not stated) | -6.64 |
| Cc1occc1C(=O)N1CC[C@@H](N2CCOCC2)[C@@H]1Cc1ccccc1 | -7.85 |
| O=C1NC2(CCN(Cc3cccnc3)CC2)CC1c1ccncc1 (configuration not stated) | -10.6 |
| CCOCC1CC2(CCN(C(=O)c3ccccc3F)CC2)CO1 (configuration not stated) | 0.964 |
| O=C(NCC1CC1)C1=NOC2(CCN(S(=O)(=O)c3cccs3)C2)C1 (configuration not stated) | -10 |
| CCOCC1CC2(CCN(Cc3ccccn3)CC2)CO1 (configuration not stated) | -3.81 |
| Cc1noc(C)c1C(=O)N1CC[C@H]2C[C@@H](c3nccs3)O[C@@H]2C1 | -13.5 |
| CC(C)c1nccc([C@H]2C[C@@H]3CCN(Cc4ccoc4)C[C@H]3O2)n1 | -4.74 |
| COC[C@@H]1CC[C@H]2[C@H](CCN2S(=O)(=O)c2ccc(F)cc2)O1 | -28.6 |
| O=C(c1ccccc1)N1CCC2(CC1)CNc1c(F)cccc12 | -7.65 |
| O=C(NCC(F)(F)F)C1=NOC2(CCCNC2)C1 (configuration not stated) | 0.364 |
| CCS(=O)(=O)N1CCc2c(CN3CCOCC3)cncc2C1 | -4.84 |
| c1csc(CN2CCC3(CCOCC3COCC3CC3)CC2)n1 (configuration not stated) | -3.9 |
| Cc1ccc(CN2CCC3(CC2)COCCN3S(C)(=O)=O)o1 | -4.45 |
| Fc1cnc(N2C[C@@H]3C[C@@H](c4nc(C5CC5)cs4)O[C@@H]3C2)nc1 | -1.67 |
| O=S(=O)(C1CC1)N1CCCn2cnc(COc3cccnc3)c2C1 | -2.62 |
| Cn1ccnc1CN1CCC2(CC1)Cc1ccccc1CNC2=O | -3.2 |
| CC(C)NC(=O)N1CCc2ncnc(-c3ccncc3)c2CC1 | -3.38 |
| Cc1oncc1C(=O)N1CC[C@@H]2[C@@H]1CC(=O)N2Cc1cccnc1 | -5.14 |
| CC(C)N(C)Cc1nnc2n1CCCN(c1ncccn1)C2 | -2.54 |
| Cc1ccc(N2CC[C@H]3O[C@@H](C(=O)N4CCCCO4)CC[C@H]32)nn1 | -4.7 |
| Cc1ccc(N2CC[C@H]3O[C@@H](C(=O)N4CCCO4)CC[C@H]32)nn1 | 0.0406 |

| Compound | cytotoxicity at 70.5 h [%] |
| --- | --- |
| CN(C)C(=O)N1CCO[C@@H]2CC(COCc3cccnc3)C[C@H]21 (some centres not stated) | -1.44 |
| Cn1cccc1C(=O)N1CCC2(CCN2c2ncccn2)C1 (configuration not stated) | -3.82 |
| O=S(=O)(C1CC1)N1CCC2(CCCN(c3ncccn3)C2)C1 (configuration not stated) | 18 |
| CN(C)[C@@H]1CN(C(=O)Cc2ccsc2)[C@@H]2CCCO[C@H]12 | 16.1 |
| CN(C)C(=O)CN1CCOCC2(C1)CN(c1ncccn1)CCO2 (configuration not stated) | 16.4 |
| CN(C)[C@@H]1CN(C(=O)Cc2ccc(F)cc2)[C@@H]2CCCO[C@H]12 | 18.3 |
| Cc1noc(C)c1C(=O)N1CCOC2(COCCN(C(C)C)C2)C1 (configuration not stated) | -1.02 |
| COCCN1CCc2ncnc(OC(C)C)c2CC1 | -9.41 |
| O=C(Cc1ccsc1)N1Cc2nc(CN3CCCCC3)oc2C1 | -4.42 |
| c1cnc(N2CCO[C@H]3[C@H](OCC4CCOCC4)CC[C@@H]32)nc1 | -10.9 |
| Cc1nocc1C(=O)N1CCOC2(COCCN(C(C)C)C2)C1 (configuration not stated) | -5.11 |
| CC(C)NC(=O)[C@@]12CCO[C@@H]1CCN(Cc1ccc3c(c1)OCO3)C2 | 1.85 |
| O=C(NC1CC1)[C@@]12CCO[C@@H]1CCN(Cc1ccc3c(c1)OCO3)C2 | 2.54 |
| O=C1CCCN1Cc1nnc2n1CCN(Cc1ccco1)CC2 | -1.59 |
| O=C(c1cscn1)N1CC[C@@H]2[C@@H]1CCN2CC1CCOCC1 | -1.87 |
| CC(C)CCN1C[C@H]2C[C@H](C(=O)N3CCCC3)[C@@H](C1)O2 | -5.2 |
| c1cnc(NCc2nnn3c2CN(CC2CC2)CCC3)nc1 | -4.25 |
| CCOC1COC2(CCN(c3ccccn3)CC2)C1 (configuration not stated) | -0.266 |
| CN(C)S(=O)(=O)N1CC[C@]2(C[C@H](Oc3ncccc3F)CO2)C1 | 2.84 |
| CN(C)S(=O)(=O)N1CC[C@]2(C[C@H](Oc3cccnc3)CO2)C1 | -5.74 |
| O=C1CO[C@@H]2CN(Cc3cccs3)C[C@H]2N1CC1CC1 | -9.66 |
| O=C(c1ccco1)N1C[C@H]2CCCN(CC3CCOCC3)[C@H]2C1 | -7.8 |

| Compound | cytotoxicity at 70.5 h [%] |
| --- | --- |
| Cc1nc(CN2CCO[C@@H]3CN(C(=O)NC(C)C)CC[C@@H]3C2)cs1 | -6.02 |
| COc1ccc(CN2CCC[C@@H]3CN(C(=O)c4ccco4)C[C@@H]32)cc1 | -10.9 |
| Cc1ccc(C(=O)N2CCC3(CC2)COC(COc2ccccn2)C3)o1 (configuration not stated) | -4.24 |
| COCC(=O)N1CCC2(CC1)CCN(Cc1ccccn1)C2=O | -0.554 |
| CO[C@@H]1CCN(Cc2c(C)noc2C)[C@@H]2CN(Cc3ccco3)C[C@@H]21 | -2.94 |
| COCC1CN(c2ccc(C)nn2)Cc2cnn(CC3CCOCC3)c21 (configuration not stated) | -6.71 |
| COCC1CN(c2ncc(F)cn2)Cc2cnn(C)c21 (configuration not stated) | -4.56 |
| Cc1cccc(CN2CCO[C@@H]3CC(COc4ccccn4)C[C@H]32)n1 (some centres not stated) | 5.17 |
| Cc1nc(CN2CCC3(CC2)CC(c2cccnc2)C(=O)N3C)cs1 (configuration not stated) | -3.5 |
| c1ccc(CN2CCc3nnc(CN4CCCCC4)n3CC2)nc1 | 3.32 |
| CN(C)[C@@H]1CN(Cc2ccoc2)C[C@@H]2CCCO[C@@H]21 | -8.48 |
| c1csc(CN2CCOCC3(CCN(C4CCOCC4)C3)C2)n1 (configuration not stated) | 0.591 |
| Cc1cccc(CN2C[C@@H]3COC[C@]3(CNC(=O)N3CCCC3)C2)n1 | 0.0201 |
| CN(C)CC(=O)N1CCC2(CC1)COC(COc1ccccn1)C2 (configuration not stated) | -7.86 |
| Cc1cccc(C(=O)N2C[C@@H](OCc3cccnc3)[C@H]3OCCC[C@@H]32)n1 | -1.75 |
| O=C1NC2(CCN(Cc3nccs3)CC2)CC1c1ccncc1 (configuration not stated) | -0.916 |
| Cc1cccc(N2CC[C@@H]3CN(Cc4csc(C)n4)CCO[C@@H]3C2)n1 | 2.82 |
| CCN(C)c1ncnc2c1CCN(Cc1ccc(OC)cc1)CC2 | -2.63 |
| CO[C@@H]1CCN(Cc2c(C)noc2C)[C@@H]2CN(Cc3cccnc3)C[C@@H]21 | -5.86 |
